The source of these data is patent US8530404B2, “Compounds and methods for treatment of cancer” (FibroGen, Inc., priority 2005, dated 2013).

One data set relates to human A549 lung tumors. Briefly: Subcutaneously implanted human A549 lung tumor mouse xenograft (Example 2). Format: in vivo. To be noted: for tumor weight at necropsy, Mean / A549 mean tumor volume: 20 mg/kg PO; for increase in mean tumor volume: within 1 week (7 days) from start, 20 mg/kg, vehicle control 45%. The source says: Immuno-compromised athymic CD-1 nu/nu nude mice males (5-6 weeks old) were used in this study (Charles River Laboratories, Wilmington, Mass.). Animals were maintained in a HEPA-filtered environment during the experimental period. Cages, food, and bedding were autoclaved. Animal diets were obtained from Harlan Teklad (Madison, Wis.). […] A stock tumor was established by subcutaneously injecting a cell suspension into nude mice. The resulting tumor was maintained in nude mice subcutaneously as tumor stock prior to use. Tumor implantation was performed when the stock tumors were in log phase of growth. Before implantation, tumor tissue was harvested from stock mice and placed in RPMI-1640 medium. Necrotic tissues were dissected away and viable tissues were cut into 1-2 mm^2 pieces. Tumor fragments were then transplanted subcutaneously to the right flank of the nude mice. Treatment (administration of compounds of the present invention) was started when the inoculated tumors reached approximately 100 mm^3, and continued for four weeks. […] Sizes of the primary tumors were measured through the skin with calipers once per week. […] Body weight of the mice in each group was also measured once per week during the experimental period. All animals were sacrificed following thirty-two days of treatment. Primary tumors were excised and weighed on an electronic balance. Blood samples were taken during terminal sacrifice and placed in microhematocrit tubes containing EDTA. Complete Blood Counts (CBC) and reticulocyte analysis were performed with the Cell Dyn 3700 analyzer (Abbott Diagnostics), as described by the manufacturer. Procedures were carried out as described above for Example 1, with the following changes. The human H-460 lung cancer cell line was replaced by the human A549 lung cancer cell line. Xenografted H460 tumors are characterized by a high growth rate, while xenografted A549 tumors progress substantially more slowly. A549 has been characterized extensively. […] Hanze et al., (2003) Biochem Biophys Res Commun 312:571-577; Wedge et al., (2002) Cancer Res 62:4645-4655; and Abdollahi et al., (2003) Cancer Res 63:8890-8898.) Compound B treatment groups (6 mg/kg, 20 mg/kg) were replaced by compound D treatment groups (6 mg/kg, 20 mg/kg). Other experimental parameters were identical to those described in Example 1 above.

Data set [1] in a line: Body weight in H-460 xenograft mice (Example 1). The class given is in vivo, mouse. The method, then: Sizes of the primary tumors were measured through the skin with calipers once per week. Tumor volumes were calculated by the formula V═(W^2*L)/2. Body weight of the mice in each group was also measured once per week during the experimental period. All animals were sacrificed following thirty-two days of treatment. Primary tumors were excised and weighed on an electronic balance. Blood samples were taken during terminal sacrifice and placed in microhematocrit tubes containing EDTA. Complete Blood Counts (CBC) and reticulocyte analysis were performed with the Cell Dyn 3700 analyzer (Abbott Diagnostics), as described by the manufacturer.
Thus, differences in tumor progression as measured by mean tumor volumes could not be attributed to any generalized toxicity or suppression of normal metabolism that might have been detected by changes in body weights.

The next data set deals with human H-460 lung tumors. Briefly: Subcutaneously implanted human H-460 lung tumor mouse xenograft (Example 1). Format: in vivo. To be noted: for Mean Tumor Weight at Necropsy: day 32. The source says: Immuno-compromised athymic CD-1 nu/nu nude mice males (5-6 weeks old) were used in this study (Charles River Laboratories, Wilmington, Mass.). Animals were maintained in a HEPA-filtered environment during the experimental period. Cages, food, and bedding were autoclaved. Animal diets were obtained from Harlan Teklad (Madison, Wis.). […] The human H460 lung cancer cell line used was obtained from the National Cancer Institute. (Brower et al., (1986) Cancer Res 46:798-806.) Xenografted H-460 tumors are sensitive to chemotherapeutics commonly used in treatment of lung cancer. […] A stock tumor was established by subcutaneously injecting a cell suspension into nude mice. The resulting tumor was maintained in nude mice subcutaneously as tumor stock prior to use. Tumor implantation was performed when the stock tumors were in log phase of growth. Before implantation, tumor tissue was harvested from stock mice and placed in RPMI-1640 medium. Necrotic tissues were dissected away and viable tissues were cut into 1-2 mm^2 pieces. Tumor fragments were then transplanted subcutaneously to the right flank of the nude mice. Treatment (administration of compounds of the present invention) was started when the inoculated tumors reached approximately 100 mm^3, and continued for four weeks. […] [table] Sizes of the primary tumors were measured through the skin with calipers once per week. […] Body weight of the mice in each group was also measured once per week during the experimental period. All animals were sacrificed following thirty-two days of treatment. Primary tumors were excised and weighed on an electronic balance. Blood samples were taken during terminal sacrifice and placed in microhematocrit tubes containing EDTA. Complete Blood Counts (CBC) and reticulocyte analysis were performed with the Cell Dyn 3700 analyzer (Abbott Diagnostics), as described by the manufacturer.
Background: A xenograft is tissue or cells of one species grown in another, often human tumour cells in immunodeficient mice.

Marks after values point to notes of the source that are not given here.

In the case of `Cc1nc(C(=O)NCC(=O)O)c(O)c2ccc(Oc3ccccc3)cc12` [Compound D, [(4-Hydroxy-1-methyl-7-phenoxy-isoquinoline-3-carbonyl)-amino]-acetic acid], the “tumor weight at necropsy, Mean” value with human A549 lung tumors was found to be 0.58 g. Moreover, the “A549 mean tumor volume” value in the data set with human A549 lung tumors (week 0) is given as 106 mm^3; in the data set with human A549 lung tumors (week 1), 126 mm^3; in the data set on human A549 lung tumors (week 2) it was 148 mm^3; with human A549 lung tumors (week 3), 193 mm^3; with human A549 lung tumors (week 4), 227 mm^3. Moreover, the “increase in mean tumor volume” value with human A549 lung tumors is on record as 20%.
For `COc1ccc(Oc2ccc3c(O)c(C(=O)NCC(=O)O)ncc3c2)cc1` [Compound C, {[4-Hydroxy-7-(4-methoxy-phenoxy)-isoquinoline-3-carbonyl]-amino}-acetic acid], the “mean animal body weight” value in data set [1] (day 0, 20 mg/kg PO) is recorded as 25.7 grams; in data set [1] (day 10, 20 mg/kg PO), 29.4 grams; in data set [1] (day 17, 20 mg/kg PO) it was 29.9 grams; in data set [1] (day 24, 20 mg/kg PO), 31.0 grams; in data set [1] (day 31, 20 mg/kg PO) it was 30.9 grams. Also, the “tumor weight at necropsy, Mean” value in the data set with human A549 lung tumors stood at 0.50 g. Besides, the “A549 mean tumor volume” value with human A549 lung tumors (week 0) is 102 mm^3; in the data set on human A549 lung tumors (week 1), 124 mm^3; with human A549 lung tumors (week 2) it was 152 mm^3; in the data set on human A549 lung tumors (week 3), 180 mm^3; in the data set on human A549 lung tumors (week 4), 208 mm^3. Further, in the data set with human A549 lung tumors, the “increase in mean tumor volume” value is recorded as 22%. For the same compound, the mean tumor volume is reported as 91 mm^3 with human H-460 lung tumors (day 0, 20 mg/kg PO); 638 mm^3 in the data set with human H-460 lung tumors (day 10, 20 mg/kg PO); 1365 mm^3 with human H-460 lung tumors (day 17, 20 mg/kg PO); 2239** mm^3 in the data set with human H-460 lung tumors (day 24, 20 mg/kg PO); 2373** mm^3 in the data set on human H-460 lung tumors (day 31, 20 mg/kg PO). Moreover, in the data set with human H-460 lung tumors (20 mg/kg PO), the “Mean Tumor Weight at Necropsy” value turned out to be 2.35 g.
For the compound `O=C(O)CNC(=O)c1nc(Cl)c2ccccc2c1O` [Compound A, [(1-Chloro-4-hydroxy-isoquinoline-3-carbonyl)-amino]-acetic acid], the “mean animal body weight” value is 25.2 grams in data set [1] (day 0, 20 mg/kg PO); 24.5 grams in data set [1] (day 0, 60 mg/kg PO); 30.1 grams in data set [1] (day 10, 20 mg/kg PO); 30.0 grams in data set [1] (day 10, 60 mg/kg PO); 30.5 grams in data set [1] (day 17, 20 mg/kg PO); 30.5 grams in data set [1] (day 17, 60 mg/kg PO). Further, the “mean animal body weight” value was 30.6 grams in data set [1] (day 24, 20 mg/kg PO); 30.6 grams in data set [1] (day 24, 60 mg/kg PO); 30.3 grams in data set [1] (day 31, 20 mg/kg PO); 29.9 grams in data set [1] (day 31, 60 mg/kg PO). Moreover, the “tumor weight at necropsy, Mean” value in the data set with human A549 lung tumors came out at 0.76 g. In addition, the “A549 mean tumor volume” value in the data set with human A549 lung tumors (week 0) is recorded as 100 mm^3; in the data set on human A549 lung tumors (week 1) it was 138 mm^3; in the data set with human A549 lung tumors (week 2), 173 mm^3; in the data set on human A549 lung tumors (week 3) it was 241 mm^3; in the data set on human A549 lung tumors (week 4), 328 mm^3. Also, the mean tumor volume in the data set with human H-460 lung tumors (day 0, 20 mg/kg PO) stood at 88 mm^3; with human H-460 lung tumors (day 0, 60 mg/kg PO), 105 mm^3; in the data set on human H-460 lung tumors (day 10, 20 mg/kg PO) it was 730 mm^3; in the data set with human H-460 lung tumors (day 10, 60 mg/kg PO) it was 895 mm^3; in the data set with human H-460 lung tumors (day 17, 20 mg/kg PO), 1376 mm^3; in the data set with human H-460 lung tumors (day 17, 60 mg/kg PO), 1742 mm^3. The mean tumor volume in the data set with human H-460 lung tumors (day 24, 20 mg/kg PO) is reported as 2499** mm^3; in the data set on human H-460 lung tumors (day 24, 60 mg/kg PO), 2662* mm^3; with human H-460 lung tumors (day 31, 20 mg/kg PO) it was 2670** mm^3; in the data set with human H-460 lung tumors (day 31, 60 mg/kg PO) it was 2968* mm^3. Moreover, the figures for the “Mean Tumor Weight at Necropsy” value with human H-460 lung tumors (20 mg/kg PO) and with human H-460 lung tumors (60 mg/kg PO) were 3.05 g and 3.09 g, respectively.
With `C[C@H](NC(=O)c1ncc2cc(Oc3ccccc3)ccc2c1O)C(=O)O` [Compound B, (S)-2-[(4-Hydroxy-7-phenoxy-isoquinoline-3-carbonyl)-amino]-propionic acid], the “mean animal body weight” value in data set [1] (day 0, 6 mg/kg PO) was 26.3 grams; in data set [1] (day 0, 20 mg/kg PO), 25.7 grams; in data set [1] (day 10, 6 mg/kg PO), 27.9 grams; in data set [1] (day 10, 20 mg/kg PO), 27.8 grams; in data set [1] (day 17, 6 mg/kg PO), 29.1 grams; in data set [1] (day 17, 20 mg/kg PO), 29.0 grams. Further, the “mean animal body weight” value in data set [1] (day 24, 6 mg/kg PO) came out at 29.3 grams; in data set [1] (day 24, 20 mg/kg PO), 29.3 grams; in data set [1] (day 31, 6 mg/kg PO), 29.3 grams; in data set [1] (day 31, 20 mg/kg PO), 29.3 grams. Besides, the mean tumor volume is recorded as 101 mm^3 in the data set with human H-460 lung tumors (day 0, 6 mg/kg PO); 108 mm^3 in the data set on human H-460 lung tumors (day 0, 20 mg/kg PO); 884 mm^3 in the data set on human H-460 lung tumors (day 10, 6 mg/kg PO); 914 mm^3 in the data set on human H-460 lung tumors (day 10, 20 mg/kg PO); 1949 mm^3 in the data set with human H-460 lung tumors (day 17, 6 mg/kg PO); 1858 mm^3 with human H-460 lung tumors (day 17, 20 mg/kg PO). Further, the mean tumor volume in the data set on human H-460 lung tumors (day 24, 6 mg/kg PO) is recorded as 3131 mm^3; in the data set with human H-460 lung tumors (day 24, 20 mg/kg PO), 3074 mm^3; in the data set with human H-460 lung tumors (day 31, 6 mg/kg PO), 3343 mm^3; with human H-460 lung tumors (day 31, 20 mg/kg PO) it was 3229 mm^3. Also, the results for the “Mean Tumor Weight at Necropsy” value in the data set with human H-460 lung tumors (6 mg/kg PO) and with human H-460 lung tumors (20 mg/kg PO) were 4.27 g and 3.60 g, respectively.
